The source of these data is patent publication US10005767B2, “Compositions and methods for inhibition of the JAK pathway” (Rigel Pharmaceuticals, Inc., priority 2009, dated 2018).

SMILES strings stand for the structures. Like-named read-outs stand apart in the source and are kept apart here. Where only a bound is given, the exact number is not on record here.

In this assay the test system is human primary T-cells, IL-2 stimulated proliferation (JAK-1 and JAK-3 dependent; reported as JAK3 activity). The assay is described as follows: Human primary T-cell proliferation stimulated by IL-2 (Example 3). Format: cell-based. To be noted: tested under conditions described in Example 3 (IL-2 stimulated human primary T-cell proliferation), read-out: ability to inhibit JAK3 activity, IC50 range (Table V). The method, boiled down:
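Peripheral-blood human T-cells pre-activated via TCR/CD28, IL-2-starved overnight, then cultured 72 h at 37 °C with compound in Yssel's medium containing IL-2 (80 U/mL in cell suspension). Proliferation read as viable-cell ATP by CellTiter-Glo luminescence; reduction versus control taken as JAK pathway inhibition.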

With `Cc1cnc(Nc2ccc(S(C)(=O)=O)nc2)nc1Nc1ccc2oc(=O)[nH]c2c1` [II-43, 5-[2-(6-Methanesulfonyl-pyridin-3-ylamino)-5-methyl-pyrimidin-4-ylamino]-3H-benzooxazol-2-one], under “Homo sapiens, T-cell”, the IC50 is < 500 nM.

`Cc1cnc(Nc2cc(C)c(Cl)c(C)c2)nc1Nc1ccc2oc(=O)[nH]c2c1` [Compound I-394, N2-(4-chloro-3,5-dimethyl)phenyl-5-methyl-N4-(2-oxo-2,3-dihydro-1,3-benzoxazol-5-yl)-2,4-pyrimidinediamine]: the IC50 was < 500 nM.

For `COc1ccc(Nc2ncc(C)c(Nc3ccc4oc(=O)[nH]c4c3)n2)cc1C(=O)N1CCN(C)CC1` [Compound I-263, 5-(2-(4-methoxy-3-(4-methylpiperazine-1-carbonyl)phenylamino)-5-methylpyrimidin-4-ylamino)benzo[d]oxazol-2(3H)-one], the half-maximal inhibitory concentration (IC50) (Homo sapiens, T-cell) is < 500 nM.

As for `COc1cc(Nc2ncc(C)c(Nc3ccc4oc(=O)[nH]c4c3)n2)cc(OC)c1OC` [Compound I-119, N4-(benzo[d]oxazol-2(3H)-on-5-yl)-N2-(3,4,5-trimethoxy)phenyl-5-methylpyrimidine-2,4-diamine], the IC50 was < 500 nM.

On to `Cc1cnc(Nc2ccc(F)c(S(C)(=O)=O)c2)nc1Nc1ccc2oc(=O)[nH]c2c1` [Compound I-242, 5-(2-(4-fluoro-3-(methylsulfonyl)phenylamino)-5-methylpyrimidin-4-ylamino)benzo[d]oxazol-2(3H)-one], for which the IC50 (Homo sapiens, T-cell) was < 500 nM.

With `Cc1cnc(Nc2ccc(N3CCC(NCC4CC4)C3)nc2)nc1Nc1ccc2oc(=O)[nH]c2c1` (stereo not drawn) [II-94, 5-(2-(6-(3-(cyclopropylmethylamino)pyrrolidin-1-yl)pyridin-3-ylamino)-5-methylpyrimidin-4-ylamino)benzo[d]oxazol-2(3H)-one], the IC50 (Homo sapiens, T-cell) was < 500 nM.

With `Cc1cnc(Nc2cccc(S(=O)(=O)N3CCOCC3)c2)nc1Nc1ccc2oc(=O)[nH]c2c1` [Compound I-30, N4-(benzo[d]oxazol-2(3H)-on-5-yl)-N2-(3-(morpholinosulfonyl)phenyl)-5-methylpyrimidine-2,4-diamine], the IC50 (Homo sapiens, T-cell) is < 500 nM.

With `Cc1cc(Nc2ncc(F)c(Nc3ccc4oc(=O)[nH]c4c3)n2)cnc1N1CCN(C)CC1` [II-30, N4-(benzoxazolin-2-on-5-yl)-N2-[3-methyl-2-(4-methylpiperazin-1-yl)pyridin-5-yl]-5-fluoropyrimidine-2,4-diamine], the IC50 (Homo sapiens, T-cell) was < 500 nM.

For the molecule `CCN(CC)C1CCN(C2CCCCc3ccc(Nc4ncc(C)c(Nc5ccc6oc(=O)[nH]c6c5)n4)cc32)C1` (stereo not drawn) [IV-13, 5-{2-[9-(3-Diethylamino-pyrrolidin-1-yl)-6,7,8,9-tetrahydro-5H-benzocyclohepten-2-ylamino]-5-methyl-pyrimidin-4-ylamino}-3H-benzooxazol-2-one], the IC50 (Homo sapiens, T-cell) was in the range of 500 to 5000 nM.

As for `Cc1cnc(Nc2ccc(F)c(C#N)c2)nc1Nc1ccc2oc(=O)[nH]c2c1` [Compound I-294, N2-(3-cyano-4-fluoro)phenyl-5-methyl-N4-(2-oxo-2,3-dihydro-1,3-benzoxazol-5-yl)-2,4-pyrimidinediamine], the 50% inhibitory concentration (IC50) was < 500 nM.

Consider `Cc1cnc(Nc2ccc(F)c(-c3cccnc3)c2)nc1Nc1ccc2oc(=O)[nH]c2c1` [Compound I-472, 5-(2-(4-fluoro-3-(pyridin-3-yl)phenylamino)-5-methylpyrimidin-4-ylamino)benzo[d]oxazol-2(3H)-one], for which the half-inhibitory concentration (IC50) (Homo sapiens, T-cell) is < 500 nM.

Take `COc1cc(Nc2ncc(C)c(Nc3ccc4oc(=O)[nH]c4c3)n2)ccc1C(=O)Nc1ccccc1` [Compound I-221, 2-methoxy-4-(5-methyl-4-(2-oxo-2,3-dihydrobenzo[d]oxazol-5-ylamino)pyrimidin-2-ylamino)-N-phenylbenzamide]: the concentration for half-maximal inhibition (IC50) (Homo sapiens, T-cell) was < 500 nM.

On to `Cc1cnc(Nc2ccnc(N3CCNCC3)c2)nc1Nc1ccc2oc(=O)[nH]c2c1` [IV-7, N4-(benzo[d]oxazol-2(3H)-on-5-yl)-N2-[2-(piperazino)pyridin-4-yl]-5-methylpyrimidine-2,4-diamine], for which the IC50 (Homo sapiens, T-cell) is 5000 to 10000 nM.

Regarding `Cc1cnc(Nc2ccc3c(c2)OC(F)(F)O3)nc1Nc1ccc2oc(=O)[nH]c2c1` [IV-36, N2-(2,2-difluoro-2H-1,3-benzodioxol-5-yl)-5-methyl-N4-(2-oxo-2,3-dihydro-1,3-benzoxazol-5-yl)-2,4-pyrimidinediamine], the IC50 (Homo sapiens, T-cell) is < 500 nM.

`COc1ccc(Nc2ncc(C)c(Nc3cc(C)c4oc(=O)[nH]c4c3)n2)cc1C` [Compound I-429, 5-(2-(4-methoxy-3-methylphenylamino)-5-methylpyrimidin-4-ylamino)-7-methylbenzo[d]oxazol-2(3H)-one]: for the setting “Homo sapiens, T-cell”, the IC50 is < 500 nM.

For the molecule `Cc1cnc(Nc2ccc(NS(C)(=O)=O)nc2)nc1Nc1ccc2oc(=O)n(C)c2c1` [II-79, N-(5-(5-methyl-4-(3-methyl-2-oxo-2,3-dihydrobenzo[d]oxazol-5-ylamino)pyrimidin-2-ylamino)pyridin-2-yl)methanesulfonamide], for the setting “Homo sapiens, T-cell”, the IC50 is < 500 nM.

On to `COCCCOc1ccc(Nc2ncc(C)c(Nc3ccc4oc(=O)[nH]c4c3)n2)cn1` [II-149, N2-[2-(3-methoxy)propoxypyridin-5-yl]-5-methyl-N4-(2-oxo-2,3-dihydro-1,3-benzoxazol-5-yl)-2,4-pyrimidinediamine], for which the IC50 is < 500 nM.

Consider `Cc1cnc(Nc2cnc(N3CC4CCC(C3)N4C(=O)C(F)(F)F)c(C)c2)nc1Nc1ccc2oc(=O)[nH]c2c1` [II-63, 5-(5-methyl-2-(5-methyl-6-(8-(2,2,2-trifluoroacetyl)-3,8-diaza-bicyclo[3.2.1]octan-3-yl)pyridin-3-ylamino)pyrimidin-4-ylamino)benzo[d]oxazol-2(3H)-one], for which the IC50 (Homo sapiens, T-cell) is < 500 nM.

As for `Cc1cnc(Nc2ccc3c(c2)CN(CCC(C)C)C3)nc1Nc1ccc2oc(=O)[nH]c2c1` [III-9, N4-(benzo[d]oxazol-2(3H)-on-5-yl)-N2-(2-isopentylisoindolin-5-yl)-5-methylpyrimidine-2,4-diamine], the IC50 (Homo sapiens, T-cell) is < 500 nM.

On to `NS(=O)(=O)c1cccc(Nc2ncc(F)c(Nc3ccc4oc(=O)[nH]c4c3)n2)c1` [Compound I-18], for which the IC50 is < 500 nM.

`Cc1cnc(Nc2cc(C(C)O)cc(C(F)(F)F)c2)nc1Nc1ccc2oc(=O)[nH]c2c1` (stereo not drawn) [Compound I-446, 5-(2-(3-(1-hydroxyethyl)-5-(trifluoromethyl)phenylamino)-5-methylpyrimidin-4-ylamino)benzo[d]oxazol-2(3H)-one]: under “Homo sapiens, T-cell”, the IC50 was < 500 nM.

Turning to `Cc1cnc(Nc2cnc(N3CCN(C)CC3)c(C)c2)nc1Nc1ccc2[nH]c(=O)[nH]c2c1` [II-27, N4-(benzimidazolin-2-on-5-yl)-N2-[3-methyl-2-(4-methylpiperazin-1-yl)pyridin-5-yl]-5-methylpyrimidine-2,4-diamine], the half-inhibitory concentration (IC50) is < 500 nM.

`Cc1ccc(Nc2ncc(C)c(Nc3ccc4oc(=O)[nH]c4c3)n2)cc1OC(F)F` [Compound I-390, N2-(3-difluoromethoxy-4-methyl)phenyl-5-methyl-N4-(2-oxo-2,3-dihydro-1,3-benzoxazol-5-yl)-2,4-pyrimidinediamine]: the IC50 was < 500 nM.

On to `Cc1ccc(Nc2ncc(C)c(Nc3ccc4oc(=O)[nH]c4c3)n2)cc1S(N)(=O)=O` [Compound I-24, N4-(benzo[d]oxazol-2(3H)-on-5-yl)-N2-((3-aminosulfonyl-4-methyl)phenyl)-5-methylpyrimidine-2,4-diamine], for which the 50% inhibitory concentration (IC50) is < 500 nM.

As for `Cc1cnc(Nc2cc(Cl)cc(OC(F)(F)F)c2)nc1Nc1ccc2oc(=O)[nH]c2c1` [Compound I-378, N2-(3-chloro-5-trifluoromethoxy)phenyl-5-methyl-N4-(2-oxo-2,3-dihydro-1,3-benzoxazol-5-yl)-2,4-pyrimidinediamine], the half-inhibitory concentration (IC50) was < 500 nM.

Turning to `Cc1cnc(Nc2cc(Br)cc(C(F)(F)F)c2)nc1Nc1ccc2oc(=O)[nH]c2c1` [Compound I-189, 5-[2-(3-Bromo-5-trifluoromethyl-phenylamino)-5-methyl-pyrimidin-4-ylamino]-3H-benzooxazol-2-one], the concentration for half-maximal inhibition (IC50) (Homo sapiens, T-cell) is < 500 nM.

As to `Cc1cnc(Nc2ccc(S(C)(=O)=O)cc2)nc1Nc1ccc2oc(=O)[nH]c2c1` [Compound I-17], the half-inhibitory concentration (IC50) was < 500 nM.

Regarding `NS(=O)(=O)c1ccc(Nc2ncc(F)c(Nc3ccc4oc(=O)[nH]c4c3)n2)cc1` [Compound I-19], the IC50 was < 500 nM.

For the molecule `Cc1cnc(Nc2ccc(N3CCOC(C)C3)nc2)nc1Nc1ccc2oc(=O)[nH]c2c1` (stereo not drawn) [II-138, 5-methyl-N2-[2-(2S-methylmorpholino)pyridin-5-yl]-N4-(2-oxo-2,3-dihydro-1,3-benzoxazol-5-yl)-2,4-pyrimidinediamine], the 50% inhibitory concentration (IC50) was < 500 nM.

Consider `Cc1ccc(Cl)c(Nc2ncc(C)c(Nc3ccc4oc(=O)[nH]c4c3)n2)c1` [Compound I-521, 5-(2-(2-chloro-5-methylphenylamino)-5-methylpyrimidin-4-ylamino)benzo[d]oxazol-2(3H)-one], for which, for the setting “Homo sapiens, T-cell”, the IC50 is < 500 nM.

For the molecule `Cc1cnc(Nc2cnc(C3NCC4CCCCC43)c(Cl)c2)nc1Nc1ccc2oc(=O)[nH]c2c1` (stereo not drawn) [II-122, N2-[3-chloro-2-(octahydroisoindol-1-yl)pyridin-5-yl]-5-methyl-N4-(2-oxo-2,3-dihydro-1,3-benzoxazol-5-yl)-2,4-pyrimidinediamine], the IC50 (Homo sapiens, T-cell) was < 500 nM.

With `Cc1cnc(Nc2ccc(C#N)c(OC(F)F)c2)nc1Nc1ccc2oc(=O)[nH]c2c1` [Compound I-434, N2-(4-cyano-3-difluoromethoxy)phenyl-5-methyl-N4-(2-oxo-2,3-dihydro-1,3-benzoxazol-5-yl)-2,4-pyrimidinediamine], the IC50 is < 500 nM.

Consider `Cc1cnc(Nc2ccc(SC(F)(F)F)cc2)nc1Nc1ccc2oc(=O)[nH]c2c1` [Compound I-367, N2-(4-trifluoromethylthio)phenyl-5-methyl-N4-(2-oxo-2,3-dihydro-1,3-benzoxazol-5-yl)-2,4-pyrimidinediamine], for which the IC50 is < 500 nM.

As a reminder, the IC50 is the concentration that inhibits the measured activity by half.
